Key:
Assay type in all cases: in vivo
[1] = system: Spodoptera littoralis; assay: Spodoptera littoralis (Egyptian cotton leafworm) leaf disc test; settings: foliar, 72 h, 200 ppm sprayed on cotton leaf discs, L1 larvae, mortality, feeding behavior, growth regulation 3 DAT
Text: Spodoptera littoralis (Egyptian cotton leafworm): Cotton leaf discs were placed on agar in a 24-well microtiter plate and sprayed with test solutions at an application rate of 200 ppm. After drying, the leaf discs were infested with 5 L1 larvae. The samples were checked for mortality, feeding behavior, and growth regulation 3 days after treatment (DAT).

[2] = system: Heliothis virescens; assay: Heliothis virescens (Tobacco budworm) egg/artificial diet test; settings: 96 h, 200 ppm (concentration in well 18 ppm), eggs on artificial diet, 4 days, egg mortality, larval mortality, growth regulation
Method: Heliothis virescens (Tobacco budworm): Eggs (0-24 h old) were placed in 24-well microtiter plate on artificial diet and treated with test solutions at an application rate of 200 ppm (concentration in well 18 ppm) by pipetting. After an incubation period of 4 days, samples were checked for egg mortality, larval mortality, and growth regulation.

[3] = system: Plutella xylostella; assay: Plutella xylostella (Diamond back moth) artificial diet test; settings: 144 h, 200 ppm (concentration in well 18 ppm), L2 larvae, 6 days, larval mortality and growth regulation
Method: (§1) Plutella xylostella (Diamond back moth): 24-well microtiter plate (MTP) with artificial diet was treated with test solutions at an application rate of 200 ppm (concentration in well 18 ppm) by pipetting. After drying, the MTP's were infested with L2 larvae (7-12 per well). After an incubation period of 6 days, samples were checked for larval mortality and growth regulation.

[4] = system: Diabrotica balteata; assay: Diabrotica balteata (Corn root worm) artificial diet test; settings: 120 h, 200 ppm (concentration in well 18 ppm), L2 larvae, 5 days, larval mortality and growth regulation
Method: as §1, with “Diabrotica balteata (Corn root worm): A” for “Plutella xylostella (Diamond back moth):”, “(6-10” for “(7-12”, “5” for “6”

[5] = system: Thrips tabaci; assay: Thrips tabaci (Onion thrips) leaf disc test; settings: foliar, 168 h, 200 ppm sprayed on sunflower leaf discs, population of mixed ages, 7 days, mortality
Method: Thrips tabaci (Onion thrips): Sunflower leaf discs were placed on agar in a 24-well microtiter plate and sprayed with test solutions at an application rate of 200 ppm. […] After an incubation period of 7 days, samples were checked for mortality.

[6] = system: Tetranychus urticae; assay: Tetranychus urticae (Two-spotted spider mite) leaf disc test; settings: foliar, 192 h, 200 ppm sprayed on bean leaf discs, mite populations of mixed ages, 8 days, egg, larval and adult mortality
Text: Tetranychus urticae (Two-spotted spider mite): Bean leaf discs on agar in 24-well microtiter plates were sprayed with test solutions at an application rate of 200 ppm. After drying, the leaf discs are infested with mite populations of mixed ages. 8 days later, discs are checked for egg mortality, larval mortality, and adult mortality.

[7] = system: Myzus persicae; assay: Myzus persicae (Green peach aphid) leaf disc test; settings: foliar, 144 h, 200 ppm sprayed on sunflower leaf discs, aphid population of mixed ages, 6 DAT, mortality
Method: Myzus persicae (Green peach aphid): Sunflower leaf discs were placed on agar in a 24-well microtiter plate and sprayed with test solutions at an application rate of 200 ppm. After drying, the leaf discs were infested with an aphid population of mixed ages. After an incubation period of 6 DAT, samples were checked for mortality.

Measured: pest or weed control at 200 ppm

CN(C(=O)c1cc[n+]([O-])cc1)c1cccc(C(=O)Nc2c(Br)cc(C(F)(C(F)(F)F)C(F)(F)F)cc2Br)c1F [Compound 9]
≥ 80%: all assays above

CCN(C(=O)c1ccncc1)c1cccc(C(=O)Nc2c(Br)cc(C(F)(C(F)(F)F)C(F)(F)F)cc2OC(F)F)c1F [Compound 7]
≥ 80%: all assays above

CN(C(=O)c1ccncc1)c1cccc(C(=O)Nc2c(Br)cc(C(F)(C(F)(F)F)C(F)(F)F)cc2Br)c1F [Compound 8]
≥ 80%: all assays above

CCN(C(=O)c1ccncc1)c1cccc(C(=O)Nc2c(Cl)cc(C(F)(C(F)(F)F)C(F)(F)F)cc2Br)c1F [Compound 1, N′-[3-[[2-bromo-6-chloro-4-[1,1,1,2,3,3,3-heptafluoro-prop-2-yl]phenyl]carbamoyl]-2-fluoro-phenyl]-N-ethyl-pyridine-4-carboxamide]
≥ 80%: all assays above

CCN(C(=O)c1ccncc1)c1cccc(C(=O)Nc2c(Cl)cc(C(F)(C(F)(F)F)C(F)(F)F)cc2OC(F)F)c1F [Compound 18]
not listed: [2]
≥ 80%: all other assays above

Cc1cc(C(F)(C(F)(F)F)C(F)(F)F)cc(Cl)c1NC(=O)c1cccc(N(C)C(=O)c2ccncc2)c1F [Compound 12]
≥ 80%: all assays above

CCN(C(=O)c1cc[n+]([O-])cc1)c1cccc(C(=O)Nc2c(Br)cc(C(F)(C(F)(F)F)C(F)(F)F)cc2C2CC2)c1F [Compound 16]
≥ 80%: all assays above

CCN(C(=O)c1cc[n+]([O-])cc1)c1cccc(C(=O)Nc2c(Cl)cc(C(F)(C(F)(F)F)C(F)(F)F)cc2Br)c1F [Compound 2, N′-[3-[[2-bromo-6-chloro-4-[1,1,1,2,3,3,3-heptafluoro-prop-2-yl]phenyl]carbamoyl]-2-fluoro-phenyl]-N-ethyl-1-oxido-pyridin-1-ium-4-carboxamide]
≥ 80%: all assays above

CCc1cc(C(F)(C(F)(F)F)C(F)(F)F)cc(CC)c1NC(=O)c1cccc(N(CC)C(=O)c2ccncc2)c1F [Compound 4]
not listed: [2]
≥ 80%: all other assays above

CCc1cc(C(F)(C(F)(F)F)C(F)(F)F)cc(CC)c1NC(=O)c1cccc(N(CC)C(=O)c2cc[n+]([O-])cc2)c1F [Compound 5]
not listed: [1] | [2]
≥ 80%: all other assays above

CCc1cc(C(F)(C(F)(F)F)C(F)(F)F)cc(Cl)c1NC(=O)c1cccc(N(CC)C(=O)c2ccncc2)c1F [Compound 13]
≥ 80%: all assays above

CCN(C(=O)c1ccncc1)c1cccc(C(=O)Nc2c(C)cc(C(F)(C(F)(F)F)C(F)(F)F)cc2Cl)c1F [Compound 14]
≥ 80%: all assays above

CCN(C(=O)c1ccncc1)c1cccc(C(=O)Nc2c(C)cc(C(F)(C(F)(F)F)C(F)(F)F)cc2OC(F)F)c1F [Compound 19]
not listed: [2]
≥ 80%: all other assays above

CCN(C(=O)c1ccncc1)c1cccc(C(=O)Nc2c(Br)cc(C(F)(C(F)(F)F)C(F)(F)F)cc2Br)c1F [Compound 6]
≥ 80%: all assays above

CN(C(=O)c1ccncc1)c1cccc(C(=O)Nc2c(Cl)cc(C(F)(C(F)(F)F)C(F)(F)F)cc2Br)c1F [Compound 3]
not listed: [2]
≥ 80%: all other assays above

CCN(C(=O)c1cc[n+]([O-])cc1)c1cccc(C(=O)Nc2c(Br)cc(C(F)(C(F)(F)F)C(F)(F)F)cc2OC(F)F)c1F [Compound 17]
≥ 80%: all assays above

CCN(C(=O)c1ccncc1)c1cccc(C(=O)Nc2c(Br)cc(C(F)(C(F)(F)F)C(F)(F)F)cc2C2CC2)c1F [Compound 15]
≥ 80%: all assays above

CCN(C(=O)c1ccncc1)c1cccc(C(=O)Nc2c(Cl)cc(C(F)(C(F)(F)F)C(F)(F)F)cc2Cl)c1F [Compound 11]
≥ 80%: all assays above

CN(C(=O)c1ccncc1)c1cccc(C(=O)Nc2c(Cl)cc(C(F)(C(F)(F)F)C(F)(F)F)cc2Cl)c1F [Compound 10]
≥ 80%: all assays above
